# How the values were obtained:
# [1] = system: Human Hepatocellular Carcinoma SMMC-7721; assay: Inhibition of tumor growth of SMMC-7721 in nude mice xenograft model; format: in vivo, Balb/c nu/nu nude mice; settings: 100 mg/kg po qd × 2 weeks
# Method: 70 Balb/c nu/nu nude mice, 6 weeks old, female, were bought from Shanghai Experimental Animal Resource Center (Shanghai B&K Universal Group Limited).
# SMMC-7721 cells were commercially available from Shanghai Institutes for Biological Science, CAS (Shanghai, China).
# The establishment of tumor nude mice xenograft model: SMMC-7721 cells in logarithmic growth period were cultured. After cell number was counted, the cells were suspended in 1×PBS, and the number of the cell in suspension was adjusted to 1.5×10^7/ml. The tumor cells were inoculated under the skin of right armpit of nude mice with a 1 ml syringe, 3×10^6/0.2 ml/mice. 70 nude mice were inoculated in total.
# When the tumor size reached 30-130 mm^3, 58 mice were divided randomly into different groups. […]
# Animal body weight and tumor size were tested twice a week during the experiment. Clinical symptoms were recorded every day. At the end of the administration, the tumor size was recorded by taking pictures. […]
# The formula for calculating the tumor volume (TV) is: TV=a×b^2/2, wherein a, b independently represent the length and the breadth of the tumor. The formula for calculating the relative tumor volume (RTV) is: RTV=Vt/V0, wherein V0 is the tumor volume at the beginning of the administration, and Vt is the tumor […] when measured. […]
# [2] = Pharmacokinetic evaluation in rats; format: in vivo; settings: Sprague-Dawley, rat, serum, male SD rats, single oral dose 3 mg/kg, in 30% PEG400; for CL/F: read-out: apparent clearance (converted); for AUC(0-inf): read-out: area under the curve (AUC0-∞); for half-life: read-out: half-life (T1/2) (converted)
# Method: 8 male Sprague-Dawley rats (7-8 weeks old and body weight about 210 g) were divided into two groups, 4 in each group (rat No.: control group was 13-16; experimental group was 9-12), and orally administrated a single dose at 3 mg/kg of either compound: (a) the undeuterated N-(4-chloro-3-(trifluoromethyl)phenyl)-N′-(4-(2-(N-methyl-aminoformyl)-4-pyridyloxy)phenyl)urea (control compound CM4306) or (b) N-(4-chloro-3-(trifluoromethyl)phenyl)-N′-(4-(2-(N-(methyl-d3)-aminoformyl)-4-pyridyloxy)phenyl)urea (Compound CM4307 of the invention) prepared in Example 1. The pharmacokinetics differences were compared.
# The rats were fed with the standard feed, given water and chlordiazepoxide. Chlordiazepoxide was stopped at the last night before experiment, and given again two hours after the administration of the compound. The rats were fasted for 16 hours before the test. The compound was dissolved in 30% PEG400. The time for collecting orbital blood was 0.083, 0.25, 0.5, 1, 2, 4, 6, 8 and 24 hours after administrating the compounds.
# The rats were anaesthetized briefly by inhaling ether. A 300 μL orbital blood sample was collected into the tubes containing a 30 μl 1% heparin saline solution. The tubes were dried overnight at 60° C. before being used. After the blood samples were sequentially collected, the rats were anaesthetized by ether and sacrificed.
# After the blood samples were collected, the tubes were gently reversed at least five times immediately to mix the contents sufficiently, and placed on the ice. The blood samples were centrifuged at 4° C. at 5000 rpm for 5 minutes to separate the serum and red blood cells. 100 μL serum was removed to a clean plastic centrifugal tube by pipettor, and the name of the compound and time point were labeled on the tube. Serum was stored at −80° C. before LC-MS analysis.
CL/F [2] [mL/min/kg],AUC(0-inf) [2] [ng·h/mL],half-life [2] [h],Compound,increase of relative value of tumor inhibition compared with CM4306 (32.2%/19.6%−1) [1]
4.58,11300 ± 2470,11.3 ± 2.1,"[2H]C([2H])([2H])NC(=O)c1cc(Oc2ccc(NC(=O)Nc3ccc(Cl)c(C(F)(F)F)c3)cc2)ccn1 [CM4307, N-(4-chloro-3-(trifluoromethyl)phenyl)-N′-(4-(2-(N-(methyl-d3)aminoformyl)-4-pyridyloxy)phenyl)urea]",about 60%
6.83,7330 ± 336,8.6 ± 1.4,"CNC(=O)c1cc(Oc2ccc(NC(=O)Nc3ccc(Cl)c(C(F)(F)F)c3)cc2)ccn1 [CM4306, N-(4-chloro-3-(trifluoromethyl)phenyl)-N′-(4-(2-(N-methylaminoformyl)-4-pyridyloxy)phenyl)urea, reference compound]",
